According to patent publication EP0341019A2, “Polyether antibiotic” (priority 1988, dated 1989):
Where “and” joins values, the source holds several entries; their conditions need not be identical. Equal values may be shown once. Positions of bridges follow the written chain, without caps; N, C: chain ends. Non-standard residues stand in square brackets, D forms with d. Residues, ends and D or L forms follow the SMILES beside them. *: point of attachment. Ileψ(thiazoline)Cys = CC[C@H](C)[C@H](N)C1=N[C@H](C(=O)*)CS1; dOrn = NCCC[C@@H](N)C(=O)O

How the values were obtained:
[1] = test system: Eimeria acervulina Strain 59 And E. tenella Strain 155; assay: anticoccidial feed test in infected chickens, ionophore-sensitive strains; type: in vivo; conditions: A82810 0 ppm
[2] = test system: Eimeria maxima Strain FS-177; assay: anticoccidial feed test in infected chickens, ionophore-sensitive strain; type: in vivo; conditions: A82810 0 ppm
E. maxima Strain LIT-626 = assay: anticoccidial feed test in infected chickens, ionophore-resistant strain; type: in vivo; conditions: Table XIII; A82810 0 ppm; Benzeneamine ppm r4-r7: 8,10,12,14
[3] = test system: Eimeria acervulina Strain FS-316 And E. tenella Strain FS-456; assay: anticoccidial feed test in infected chickens, ionophore-resistant strains; type: in vivo; conditions: A82810 0 ppm
[4] = test system: Eimeria maxima Strain FS-410; assay: anticoccidial feed test in infected chickens, ionophore-resistant strain; type: in vivo; conditions: A82810 0 ppm
[5] = test system: Eimeria acervulina Strain FS-273 and E. tenella Strain FS-456; assay: anticoccidial feed test in infected chickens, ionophore-resistant strains; type: in vivo; conditions: Table XX, A82810 0 ppm
[6] = test system: E. acervulina Strain FS-316; assay: anticoccidial feed test in infected chickens, ionophore-resistant strain; type: in vivo; conditions: Table X, A82810 0 ppm
[7] = test system: Eimeria acervulina H & C and Eimeria tenella Wis; assay: anticoccidial feed test in infected chickens, ionophore-sensitive strains; type: in vivo; conditions: Table XIX, A82810 0 ppm
[8] = test system: culture A82810.1 (Actinomadura fibrosa sp. nov. NRRL 18348); assay: antibiotic sensitivity disc test on seeded ISP No. 2 agar; type: cell-based; set-up: key to Resistance to: (A82810.1): Resistance was scored as (+) when no zone of inhibition was observed; (-) when a zone of inhibition was observed; conditions: for resistance / sensitivity of culture A82810.1 to the antibiotic: cephalothin 30 µg, lincomycin 2 µg, penicillin G 10 units, rifampin 5 µg, lysozyme 50 µg/mL, bacitracin 10 units, gentamicin 10 µg, neomycin 30 µg, oleandomycin 15 µg, streptomycin 10 µg, tetracycline 30 µg, tobramycin 10 µg, vancomycin 30 µg; for Resistance to: (A82810.1): Oleandomycin 16 µg, Penicillin G 10 units
Procedure: (§1) Resistance to antibiotics was measured by padding antibiotic sensitivity discs onto the surface of seeded ISP No. 2 agar plates. Resistance was scored as (+) when no zone of inhibition was observed and as (-) when a zone of inhibition was observed.

A. verrucosospora = assay: antibiotic sensitivity disc test (species comparison); type: cell-based; set-up: key: Resistance was scored as (+) when no zone of inhibition was observed; (-) when a zone of inhibition was observed; conditions: Oleandomycin 16 µg; Penicillin G 10 units
Procedure: as §1

[9] = Benzeneamine ppm r4-r6: 8,12,16
[10] = Benzeneamine ppm r10-r12: 8,12,16

O=[N+]([O-])c1cc([N+](=O)[O-])c(Nc2ccc(Br)c3ccccc23)c(C(F)(F)F)c1 [4-Bromo-N-[2,4-dinitro-6-trifluoromethyl)phenyl]-1-naphthaleneamine]
WEIGHT GAIN, PERCENT OF CONTROL ([1]; Table XXIV, 4-Bromo naphthaleneamine ppm r4-r7: 4,8,12,16): 73% OF CONTROL and 66% OF CONTROL and 72% OF CONTROL and 67% OF CONTROL
AVERAGE INTESTINAL LESION SCORES ([1]; Table XXIV, 4-Bromo naphthaleneamine ppm r11-r14: 4,8,12,16): 6.2 and 6.9 and 6.6 and 3.8
AVERAGE CECAL LESION SCORES ([1]; Table XXIV, 4-Bromo naphthaleneamine ppm r18-r21: 4,8,12,16): 2.9 and 3.5 and 3.0

O=[N+]([O-])c1cc([N+](=O)[O-])c(Nc2ccc(Cl)c3ccccc23)c(C(F)(F)F)c1 [4-chloro-N-[2,4-dinitro-6-(trifluoromethyl)phenyl]-1-naphthaleneamine]
WEIGHT GAIN, PERCENT OF CONTROL ([1]; Table XXII, 4-chloro naphthaleneamine ppm r11-r14: 4,8,12,16): 80% OF CONTROL and 78% OF CONTROL and 92% OF CONTROL
WEIGHT GAIN, PERCENT OF CONTROL ([2]; Table XXIII, 4-chloro naphthaleneamine ppm r11-r14: 4,8,12,16): 87% OF CONTROL and 80% OF CONTROL and 85% OF CONTROL and 84% OF CONTROL

O=[N+]([O-])c1cc([N+](=O)[O-])c(Nc2ccc(OC(F)(F)C(F)F)cc2)c(C(F)(F)F)c1 [Benzeneamine, 2,4-Dinitro-N-[4-(1,1,2,2-tetrafluoroethoxy)phenyl]-6-(trifluoromethyl)benzeneamine]
WEIGHT GAIN, PERCENT OF CONTROL (E. maxima Strain LIT-626): 94% OF CONTROL and 99% OF CONTROL and 93% OF CONTROL and 98% OF CONTROL
WEIGHT GAIN, PERCENT OF CONTROL ([3]; Table IX, Benzeneamine ppm r4-r8: 16,18,20,22,24): 91% OF CONTROL and 84% OF CONTROL and 88% OF CONTROL and 85% OF CONTROL
AVERAGE CECAL LESION SCORES ([3]; Table IX, Benzeneamine ppm r20-r24: 16,18,20,22,24): 2.9 and 3.0 and 2.6 and 1.6
WEIGHT GAIN, PERCENT OF CONTROL ([3]; Table VII, Benzeneamine ppm r11-r14: 4,8,12,16): 90% OF CONTROL and 94% OF CONTROL and 88% OF CONTROL and 87% OF CONTROL
WEIGHT GAIN, PERCENT OF CONTROL ([3]; Table VIII, Benzeneamine ppm r4-r7: 8,10,12,14): 76% OF CONTROL and 77% OF CONTROL and 75% OF CONTROL and 70% OF CONTROL
AVERAGE INTESTINAL LESION SCORES ([3]; Table VIII, Benzeneamine ppm r11-r14: 8,10,12,14): 5.9 and 4.8 and 4.5
AVERAGE CECAL LESION SCORES ([3]; Table VIII, Benzeneamine ppm r18-r21: 8,10,12,14): 3.3 and 3.2 and 3.1 and 2.8
WEIGHT GAIN, PERCENT OF CONTROL ([4]; Table XIV, Benzeneamine ppm r4-r7: 8,10,12,14): 90% OF CONTROL and 88% OF CONTROL and 92% OF CONTROL
AVERAGE INTESTINAL LESION SCORES ([4]; Table XIV, Benzeneamine ppm r11-r14: 8,10,12,14): 3.8 and 3.7 and 3.3
WEIGHT GAIN, PERCENT OF CONTROL ([4]; Table XV, Benzeneamine ppm r4-r7: 9,10,11,12): 90% OF CONTROL and 94% OF CONTROL and 87% OF CONTROL and 84% OF CONTROL
AVERAGE INTESTINAL LESION SCORES ([4]; Table XV, Benzeneamine ppm r11-r14: 9,10,11,12): 4.0 and 3.8 and 3.7
WEIGHT GAIN, PERCENT OF CONTROL ([4]; Table XVI, Benzeneamine ppm r4-r8: 16,18,20,22,24): 71% OF CONTROL and 76% OF CONTROL and 81% OF CONTROL and 79% OF CONTROL and 83% OF CONTROL
AVERAGE INTESTINAL LESION SCORES ([4]; Table XVI, Benzeneamine ppm r12-r16: 16,18,20,22,24): 4.0 and 3.1 and 3.4 and 3.7 and 2.6
LESION SCORE ([4]; Table XVII, Benzeneamine ppm r4-r6: 8,12,16): 3.3 and 2.9 and 2.4
WEIGHT GAIN, PERCENT OF CONTROL ([4]; Table XVII, Benzeneamine ppm r10-r12: 8,12,16): 68% OF CONTROL and 59% OF CONTROL and 74% OF CONTROL
INTESTINAL LESION SCORE ([4]; Table XVIII, Benzeneamine ppm r4-r6: 8,12,16): 4.0 and 3.9 and 3.3
WEIGHT GAIN, PERCENT OF CONTROL ([4]; Table XVIII, Benzeneamine ppm r10-r12: 8,12,16): 91% OF CONTROL and 95% OF CONTROL and 93% OF CONTROL
LESION SCORE [5, 9]: 9.4 and 8.4 and 8.0
WEIGHT GAIN, PERCENT OF CONTROL [5, 10]: 70% OF CONTROL and 72% OF CONTROL and 74% OF CONTROL
PERCENT REDUCTION IN OOCYST PRODUCTION ([5]; Benzeneamine ppm r16-r18: 8,12,16): 17% and 18% and 20%
TOTAL LESION SCORE ([1]; Table VI, Benzeneamine ppm r4-r7: 4,8,12,16): 12.4 and 10.9 and 10.4 and 10.8
WEIGHT GAIN, PERCENT OF CONTROL ([1]; Table VI, Benzeneamine ppm r11-r14: 4,8,12,16): 75% OF CONTROL and 68% OF CONTROL and 73% OF CONTROL and 76% OF CONTROL
WEIGHT GAIN, PERCENT OF CONTROL ([6]; Benzeneamine ppm r4-r7: 4,8,12,16): 74% OF CONTROL and 71% OF CONTROL and 82% OF CONTROL and 75% OF CONTROL
AVERAGE INTESTINAL LESION SCORES ([6]; Benzeneamine ppm r11-r14: 4,8,12,16): 6.9 and 8.4 and 6.3 and 5.8
AVERAGE INTESTINAL LESION SCORES [7, 9]: 6.0 and 5.1 and 4.7
WEIGHT GAIN, PERCENT OF CONTROL [7, 10]: 62% OF CONTROL and 64% OF CONTROL and 69% OF CONTROL
INTESTINAL LESION SCORE ([2]; Table XI, Benzeneamine ppm r4-r6: 8,12,16): 3.6 and 3.9 and 3.3
WEIGHT GAIN, PERCENT OF CONTROL ([2]; Table XI, Benzeneamine ppm r10-r12: 8,12,16): 77% OF CONTROL and 84% OF CONTROL and 87% OF CONTROL
AVERAGE INTESTINAL LESION SCORES ([2]; Table XII, Benzeneamine ppm r4-r6: 8,12,16): 2.6 and 2.2 and 2.3
WEIGHT GAIN, PERCENT OF CONTROL ([2]; Table XII, Benzeneamine ppm r10-r12: 8,12,16): 79% OF CONTROL and 88% OF CONTROL and 102% OF CONTROL

CC[C@H](C)[C@H](N)C1=N[C@H](C(=O)N[C@@H](CC(C)C)C(=O)N[C@H](CCC(=O)O)C(=O)N[C@H](C(=O)N[C@H]2CCCCNC(=O)[C@H](CC(N)=O)NC(=O)[C@@H](CC(=O)O)NC(=O)[C@H](Cc3cnc[nH]3)NC(=O)[C@@H](Cc3ccccc3)NC(=O)[C@H]([C@@H](C)CC)NC(=O)[C@@H](CCCN)NC2=O)[C@@H](C)CC)CS1 [bacitracin] ({Ileψ(thiazoline)Cys}-L[dE]IK[dOrn]I[dF]H[dD]N; lactam 4-C)
resistance / sensitivity of culture A82810.1 to the antibiotic [8]: sensitive

CC(=O)OCC1=C(C(=O)O)N2C(=O)[C@@H](NC(=O)Cc3cccs3)[C@H]2SC1 [cephalothin]
resistance / sensitivity of culture A82810.1 to the antibiotic [8]: resistant

CCC[C@@H]1C[C@@H](C(=O)N[C@@H]([C@H]2O[C@H](SC)[C@H](O)[C@@H](O)[C@H]2O)[C@@H](C)O)N(C)C1 [lincomycin]
resistance / sensitivity of culture A82810.1 to the antibiotic [8]: resistant

CO[C@H]1C[C@H](O[C@H]2[C@H](C)[C@@H](O[C@@H]3O[C@H](C)C[C@H](N(C)C)[C@H]3O)[C@@H](C)C[C@@]3(CO3)C(=O)[C@H](C)[C@@H](O)[C@@H](C)[C@@H](C)OC(=O)[C@@H]2C)O[C@@H](C)[C@@H]1O [oleandomycin]
Resistance to: (A. verrucosospora) (A. verrucosospora): +
Resistance to: (A82810.1) [8]: -
resistance / sensitivity of culture A82810.1 to the antibiotic [8]: sensitive

CC1(C)S[C@@H]2[C@H](NC(=O)Cc3ccccc3)C(=O)N2[C@H]1C(=O)O [penicillin G]
Resistance to: (A. verrucosospora) (A. verrucosospora): -
Resistance to: (A82810.1) [8]: +
resistance / sensitivity of culture A82810.1 to the antibiotic [8]: resistant

CO[C@H]1/C=C/O[C@@]2(C)Oc3c(C)c(O)c4c(O)c(c(/C=N/N5CCN(C)CC5)c(O)c4c3C2=O)NC(=O)/C(C)=C\C=C\[C@H](C)[C@H](O)[C@@H](C)[C@@H](O)[C@@H](C)[C@H](OC(C)=O)[C@@H]1C [rifampin]
resistance / sensitivity of culture A82810.1 to the antibiotic [8]: resistant

[H]/N=C(/N)N[C@H]1[C@H](O)[C@@H](O)[C@H](O[C@@H]2O[C@@H](C)[C@](O)(C=O)[C@H]2O[C@@H]2O[C@@H](CO)[C@H](O)[C@@H](O)[C@@H]2NC)[C@@H](N/C(N)=N\[H])[C@@H]1O [streptomycin]
resistance / sensitivity of culture A82810.1 to the antibiotic [8]: sensitive

NC[C@H]1O[C@H](O[C@H]2[C@H](O)[C@@H](O[C@H]3O[C@H](CO)[C@@H](O)[C@H](N)[C@H]3O)[C@H](N)C[C@@H]2N)[C@H](N)C[C@@H]1O [tobramycin]
resistance / sensitivity of culture A82810.1 to the antibiotic [8]: sensitive

CN[C@H](CC(C)C)C(=O)N[C@H]1C(=O)N[C@@H](CC(N)=O)C(=O)N[C@H]2C(=O)N[C@H]3C(=O)N[C@H](C(=O)N[C@H](C(=O)O)c4cc(O)cc(O)c4-c4cc3ccc4O)[C@H](O)c3ccc(c(Cl)c3)Oc3cc2cc(c3O[C@@H]2O[C@H](CO)[C@@H](O)[C@H](O)[C@H]2O[C@H]2C[C@](C)(N)[C@H](O)[C@H](C)O2)Oc2ccc(cc2Cl)[C@H]1O [vancomycin]
resistance / sensitivity of culture A82810.1 to the antibiotic [8]: sensitive

gentamicin
resistance / sensitivity of culture A82810.1 to the antibiotic [8]: sensitive

neomycin
resistance / sensitivity of culture A82810.1 to the antibiotic [8]: sensitive
